Test results: PubChem BioAssay AID2060490 (Molecular Pharmacology Branch, DTP, NCI, 2025)
pIC50: −log10 of the molar value. Several values for one entry are separate records, joined by “and”; a condition that tells them apart may be missing. Equal values may be shown once.

Test system: 885512-296-R-J2-PDC complex spheroid viability
Experiment: Anticancer human tumor 885512-296-R-J2-PDC patient-derived breast carcinoma cell line growth inhibition [GQUAD]
Details: for viability, T/C: stronger effect = lower value
Excerpt: DNA G-quadruplex Stabilizer Agents in Combinations in Complex Spheroids
A high-throughput screen of multi-cell type tumor spheroids was designed to identify active combinations of DNA G-quadruplex stabilizer agents and targeted small molecules. Complex spheroids include a stromal component modeled by human endothelial cells (HUVEC) and fibroblasts modeled by human mesenchymal stem cells (MSCs). The concentration ranges selected for each drug and investigational agent were based upon clinically achievable concentrations if the clinical Cmax of the agent was known.
Compounds. The drugs and investigational agents: pidnarulex (CX-5461; NSC782164), APTO-253 (NSC789042), BRACO-19 (NSC847499), peposertib (NSC802822), ceralasertib (NSC780249), elimusertib (NSC800525), camonsertib (NSC841442), AZD-1390 (NSC803789), olaparib (NSC753686), talazoparib (NSC767125), ART-558 (NSC835418), sotorasib (NSC818433), MRTX-1133 (NSC836407), SN-38 (NSC673596), topotecan (NSC609699), etoposide (NSC141540), doxorubicin (NSC123127), gemcitabine (NSC613327), 5-fluorouracil (NSC19893), paclitaxel (NSC125973), vemurafenib (NSC761431), panobinostat (NSC761190), R-306465 (JNJ-16241199; NSC773264), adavosertib (NSC754352), TP-3654 (NSC805149), carboplatin (NSC241240), KSQ-4279 (NSC840948), and staurosporine (NSC755774) were obtained from the National Cancer Institute (NCI) Developmental Therapeutics Program Chemical Repository (34). The FDA-approved anticancer drug set is available from the NCI Developmental Therapeutics Program. […] The stock solutions were prepared in dimethyl sulfoxide (DMSO, Sigma-Aldrich, St. Louis, MO, cat. D2650) at 800-fold the tested concentration and stored at -70 degrees C prior to their use. All drugs and investigational agents were tested over a range starting from a high concentration at or near the clinical Cmax and decreasing in half-log increments. If the clinical Cmax for an agent had not been determined, the highest concentration tested was 10 microM.
2.3 Cell Culture. All cells were maintained in an incubator at 37 degrees C and 5% CO2 with 95% humidity. The PDC lines were cultured according to standard operating procedures established by the NCI PDMR. All PDCs were thawed and cultured in Matrigel-coated flasks prepared with a working solution of 1X Ham's F-12 nutrient mix, without supplementation (Invitrogen, cat. 11765054), 100 U/mL penicillin-streptomycin (Invitrogen, cat. 15140122), and 2.5% Matrigel (Corning Inc., cat. 354248) for the first three passages. The 857933-349-R-J2-PDC line was cultured in 6C/Colon 1B media, which includes advanced DMEM/F-12 (Thermo Fisher Scientific, cat. 12634028), 10 mM HEPES (Thermo Fisher Scientific, cat. 15630080), 1X GlutaMAX supplement (Thermo Fisher Scientific, cat. 35050061), 0.1 mg/mL primocin (InvivoGen, cat. ant-pm-2), 10% defined fetal bovine serum, heat inactivated (HyClone Laboratories Inc., cat. SH30070.03HI), 50% L-WRN conditioned media (ATCC, cat. CRL-3276), 1.25 mM N-Acetyl-L-cysteine (Sigma-Aldrich, cat. A9165), 10 mM nicotinamide (Sigma-Aldrich, cat. N0636), 1X B-27 supplement (Thermo Fisher Scientific, cat. 17504044), 1X N-2 supplement (Thermo Fisher Scientific, cat. 17502048), 10 microM Y-27632 dihydrochloride (Tocris Bioscience, cat. 1254), and 50 ng/mL human EGF recombinant protein (Thermo Fisher Scientific, cat. PHG0311). The 485176-168-R4-J1-PDC line was cultured in Panc media, which includes all 6C/Colon 1B media components plus 100 ng/mL human FGF-10 (Thermo Fisher Scientific, cat. 100-26), 500 nM SB-431542 (Selleckchem, cat. S1067), and gastrin (Tocris, cat. 3006).
[…]
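Also: spheroids exposed to the compounds for one week.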
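For viability, T/C in this document: percent of tumor spheroid viability relative to DMSO vehicle control wells.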

What does the source list for Cn1ncnc1[C@H]1c2n[nH]c(=O)c3cc(F)cc(c23)N[C@@H]1c1ccc(F)cc1?
viability, T/C (compound 0.000999 µM): 100% and 96.8% and 93.9%; viability, T/C (compound 0.00316 µM): 93.9% and 87.6% and 102%; viability, T/C (compound 0.00999 µM): 80.8% and 90.4% and 90%; viability, T/C (compound 0.0316 µM): 81.4% and 84.2% and 82.3%; viability, T/C (compound 0.0999 µM): 75.4% and 66.1% and 67.8%; viability, T/C (compound 0.316 µM): 50.8% and 45.5% and 53.5%; pIC50 (curve of compound): < 6.50 and 6.61

Which results are given for C=CC(=O)N1CCN(c2nc(=O)n(-c3c(C)ccnc3C(C)C)c3nc(-c4c(O)cccc4F)c(F)cc23)C(C)C1 (stereo not given)?
viability, T/C (compound 0.0316 µM): 99% and 103% and 101%; viability, T/C (compound 0.1 µM): 91% and 94.9% and 108%; viability, T/C (compound 0.316 µM): 109% and 105% and 97.4%; viability, T/C (compound 1 µM): 109% and 98.9% and 95.3%; viability, T/C (compound 3.16 µM): 99.7% and 103% and 91.2%; viability, T/C (compound 10 µM): 96.4% (2×) and 95.7%; pIC50 (curve of compound): < 5.00

C=CC(=O)N1CCN(c2nc(=O)n(-c3c(C)ccnc3C(C)C)c3nc(-c4c(O)cccc4F)c(F)cc23)C(C)C1 (stereo not given) + CN(C)c1ccc(Nc2c3ccc(NC(=O)CCN4CCCC4)cc3nc3cc(NC(=O)CCN4CCCC4)ccc23)cc1 was tested. Which pIC50 (curve of first compound, second compound 0.0316 µM) did it give?
Its pIC50 is < 5.00.

And the pIC50 (curve of first compound, second compound 0.1 µM)?
Its pIC50 is < 5.00.

And the pIC50 (curve of first compound, second compound 0.316 µM)?
The pIC50 was < 5.00.

What about the pIC50 (curve of first compound, second compound 1 µM) of the same compound?
The pIC50 was < 5.00.

And the pIC50 (curve of first compound, second compound 3.16 µM)?
The pIC50 was < 5.00.

What about the pIC50 (curve of first compound, second compound 10 µM) of the same compound?
The pIC50 was > 7.50.

And the viability, T/C (second compound 0.0316 µM, first compound 0.0316 µM)?
Its viability, T/C is 104%.

And the viability, T/C (second compound 0.0316 µM, first compound 0.1 µM)?
The viability, T/C was 94.9%.

What about the viability, T/C (second compound 0.0316 µM, first compound 0.316 µM) of the same compound?
Its viability, T/C is 108%.

And the viability, T/C (second compound 0.0316 µM, first compound 1 µM)?
The viability, T/C was 103%.

What about the viability, T/C (second compound 0.0316 µM, first compound 3.16 µM) of the same compound?
The viability, T/C was 102%.

What about the viability, T/C (second compound 0.0316 µM, first compound 10 µM) of the same compound?
Its viability, T/C is 105%.

And the viability, T/C (second compound 0.1 µM, first compound 0.0316 µM)?
Its viability, T/C is 111%.

What about the viability, T/C (second compound 0.1 µM, first compound 0.1 µM) of the same compound?
The viability, T/C was 99.5%.

What about the viability, T/C (second compound 0.1 µM, first compound 0.316 µM) of the same compound?
The viability, T/C was 101%.

What about the viability, T/C (second compound 0.1 µM, first compound 1 µM) of the same compound?
The viability, T/C was 108%.

What about the viability, T/C (second compound 0.1 µM, first compound 3.16 µM) of the same compound?
The viability, T/C was 114%.

And the viability, T/C (second compound 0.1 µM, first compound 10 µM)?
Its viability, T/C is 100%.

What about the viability, T/C (second compound 0.316 µM, first compound 0.0316 µM) of the same compound?
Its viability, T/C is 107%.

And the viability, T/C (second compound 0.316 µM, first compound 0.1 µM)?
The viability, T/C was 97.9%.

What about the viability, T/C (second compound 0.316 µM, first compound 0.316 µM) of the same compound?
The viability, T/C was 103%.

What about the viability, T/C (second compound 0.316 µM, first compound 1 µM) of the same compound?
The viability, T/C was 119%.

And the viability, T/C (second compound 0.316 µM, first compound 3.16 µM)?
Its viability, T/C is 99.9%.

And the viability, T/C (second compound 0.316 µM, first compound 10 µM)?
Its viability, T/C is 105%.

What about the viability, T/C (second compound 1 µM, first compound 0.0316 µM) of the same compound?
The viability, T/C was 101%.

What about the viability, T/C (second compound 1 µM, first compound 0.1 µM) of the same compound?
The viability, T/C was 88.8%.

And the viability, T/C (second compound 1 µM, first compound 0.316 µM)?
The viability, T/C was 101%.

What about the viability, T/C (second compound 1 µM, first compound 1 µM) of the same compound?
The viability, T/C was 117%.

What about the viability, T/C (second compound 1 µM, first compound 3.16 µM) of the same compound?
Its viability, T/C is 102%.

And the viability, T/C (second compound 1 µM, first compound 10 µM)?
The viability, T/C was 108%.

What about the viability, T/C (second compound 3.16 µM, first compound 0.0316 µM) of the same compound?
Its viability, T/C is 106%.

And the viability, T/C (second compound 3.16 µM, first compound 0.1 µM)?
The viability, T/C was 115%.

And the viability, T/C (second compound 3.16 µM, first compound 0.316 µM)?
The viability, T/C was 120%.

And the viability, T/C (second compound 3.16 µM, first compound 1 µM)?
Its viability, T/C is 129%.

What about the viability, T/C (second compound 3.16 µM, first compound 3.16 µM) of the same compound?
Its viability, T/C is 103%.

And the viability, T/C (second compound 3.16 µM, first compound 10 µM)?
The viability, T/C was 77.7%.

What about the viability, T/C (second compound 10 µM, first compound 0.0316 µM) of the same compound?
Its viability, T/C is 27%.

And the viability, T/C (second compound 10 µM, first compound 0.1 µM)?
The viability, T/C was 21.7%.

What about the viability, T/C (second compound 10 µM, first compound 0.316 µM) of the same compound?
Its viability, T/C is 21.9%.

And the viability, T/C (second compound 10 µM, first compound 1 µM)?
Its viability, T/C is 18.9%.

And the viability, T/C (second compound 10 µM, first compound 3.16 µM)?
Its viability, T/C is 20.6%.

And the viability, T/C (second compound 10 µM, first compound 10 µM)?
Its viability, T/C is 10.3%.

Cc1cccc(N(C)C(=O)C2C(O)CCN2c2nc(C)cc(C(F)(F)F)c2C#N)c1 (stereo not given) was tested. Which viability, T/C (compound 0.0316 µM) did it give?
Its viability, T/C is 104% and 98.3% and 102%.

What about the viability, T/C (compound 0.1 µM) of the same compound?
Its viability, T/C is 100% and 104% (2×).

And the viability, T/C (compound 0.316 µM)?
Its viability, T/C is 91.8% and 93.8% and 104%.

What about the viability, T/C (compound 1 µM) of the same compound?
The viability, T/C was 97.2% and 103% and 105%.

What about the viability, T/C (compound 3.16 µM) of the same compound?
Its viability, T/C is 97.8% and 113% and 97.5%.

And the viability, T/C (compound 10 µM)?
Its viability, T/C is 85% and 79.4% and 86.6%.

What about the pIC50 (curve of compound) of the same compound?
Its pIC50 is < 5.00.

CC1COCCN1c1cc(-c2ccnn2C)c2ccnc(-c3ccn[nH]3)c2n1 (stereo not given) was tested. Which viability, T/C (compound 0.0316 µM) did it give?
Its viability, T/C is 48% and 48.8% and 42.3%.

And the viability, T/C (compound 0.1 µM)?
Its viability, T/C is 6.72% and 6.01% and 7.2%.

And the viability, T/C (compound 0.316 µM)?
Its viability, T/C is 2.82% and 3.14% and 2.97%.

And the viability, T/C (compound 1 µM)?
The viability, T/C was 3.36% and 4.09% and 3.06%.

And the viability, T/C (compound 3.16 µM)?
Its viability, T/C is 4.39% and 4.91% and 5.11%.

What about the viability, T/C (compound 10 µM) of the same compound?
The viability, T/C was 7.29% and 7.28% and 8.11%.

What about the pIC50 (curve of compound) of the same compound?
Its pIC50 is > 7.50.
